Source: PubChem BioAssay (NCI)
“And” between values parts separate entries of the source, which are not always exact repeats. Identical values can stand only once.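 Method: 48-hour compound exposure of cells in 96-well plates, five concentrations, linear interpolation of endpoints. Abbreviation: GI50, concentration required for 50% inhibition of growth. TGI is the concentration that stops growth completely.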

Legend:
Experiment in all cases: DTP human tumour cell line panel, 48 h
[1] = test system: A549 NSCLC
[2] = test system: HOP-92 NSCLC
[3] = test system: HT29 colon
[4] = test system: NCI-H23 lung
[5] = test system: NCI-H460 lung
[6] = test system: OVCAR-4 ovarian
[7] = test system: OVCAR-5 ovarian
[8] = test system: SF-539 CNS
[9] = test system: SN12C renal
[10] = test system: U251 CNS

Structure (SMILES)	GI50 [1] [µM]	TGI [1] [µM]	GI50 [2] [µM]	TGI [2]	GI50 [3] [µM]	TGI [3] [µM]	GI50 [4] [µM]	TGI [4] [µM]	GI50 [5] [µM]	TGI [5] [µM]	GI50 [6] [µM]	TGI [6] [µM]	GI50 [7] [µM]	TGI [7] [µM]	GI50 [8] [µM]	TGI [8]	GI50 [9] [µM]	TGI [9] [µM]	GI50 [10] [µM]	TGI [10]
Fc1cccc(COc2ccc(Nc3ncnc4cc(-c5ccc[nH]5)sc34)cc2Cl)c1	0.789	4.8	0.31	2.39 µM	7.47	> 20.6	7.22	> 25	2.09	> 15.3	0.0847	3.84	2.22	24.9	0.931	4.81 µM	1.42	> 25	3.51	17.5 µM
NNC(=O)CCC(=O)NC1C2CC3CC(C2)CC1C3 (stereo unspecified)	–	> 100	–	> 100 µM	–	> 100	–	> 100	–	> 100	–	> 100	–	> 100	–	> 100 µM	–	> 100	–	> 100 µM
O=C(CSC(=S)N1CCOCC1)Nc1nc2c(s1)CCCC2	–	> 100	–	96.2 µM	–	> 100	–	> 100	–	> 100	–	> 100	–	> 100	–	> 100 µM	–	> 100	–	> 100 µM
O=C1/C(=C/c2ccc(O)cc2)COc2ccc(-c3ccccc3)cc21	13.2	49.6	7.63	31 µM	3.35	11.5	12.4	29.6	3.73	15.8	14.1	31	17.8	33.8	13.9	27 µM	7.29	24.8	5.1	17.8 µM
CC1C(=O)C(C)C(c2ccccc2)N(N=O)C1c1ccccc1 (stereo unspecified)	–	> 1000	107	78.4 µM and 264 µM	–	> 833	332	> 779	–	> 1000	> 378	> 661	–	> 881	> 50.3	> 79 µM and 310 µM	> 65.2	981	131	> 92.4 µM and 397 µM
CCCCn1cnc2c(SC)ncnc21	–	> 100	–	> 100 µM	–	> 100	–	> 100	–	> 100	–	> 100	–	> 100	–	> 100 µM	–	> 100	–	> 100 µM
COc1ccc(NC(=O)c2cc(OC)c(OC)c(OC)c2)cc1	–	> 100	–	> 100 µM	–	> 100	–	> 91.9	–	> 100	–	> 100	–	> 100	–	> 100 µM	–	> 100	–	> 100 µM
CCC12CCCC(=O)N1C(CO)C(c1ccccc1)O2 (stereo unspecified)	–	> 100	–	> 100 µM	–	> 100	–	> 100	–	> 100	–	> 100	–	> 100	–	> 100 µM	–	> 100	–	> 100 µM
COc1ccc2c(c1)OC(N(C(C)=O)C(C)=O)=C(C#N)C2c1ccc(F)cc1 (stereo unspecified)	4.45	> 100	10.9	90.4 µM	2.55	18	4.44	> 100	1.88	45.5	7.93	> 100	7.65	> 100	1.55	6.93 µM	6.48	> 100	1.82	54.8 µM
COc1cc(CNc2ccc(C(C)C)cc2)cc(OC)c1OC	–	34.2	–	50.2 µM	–	33.3	–	45.5	–	26.5	–	65.8	–	69.9	–	35.8 µM	–	31.4	–	29.7 µM
CCOC(=O)NN1C(=O)C(=P(c2ccccc2)(c2ccccc2)c2ccccc2)C(C(=O)OCC)=C1C	–	> 100	–	> 100 µM	–	> 100	–	> 100	–	> 100	–	> 100	–	> 100	–	> 100 µM	–	> 100	–	> 100 µM
O=C1C(Cl)=C(Nc2cccc(O)c2)C(=O)N1c1cc(Cl)c(Cl)cc1Cl	21.7	47.5	12.5	26.2 µM	18	40	22.3	48.3	18	38.4	22.7	51.8	24.2	48.2	14.9	34.3 µM	15.6	29.4	13.7	27.3 µM
CC[C@H](CC#N)OC(=O)N[C@@H](C)c1cccc(NC(=O)Nc2ccc(-c3cnco3)c(OC)c2)c1	0.0336	20.9	2.46	44.7 µM	< 0.0199	21.7	0.16	43.2	0.0328	17.1	14.1	71.7	0.623	> 84.5	0.0386	28 µM	0.111	79.3	0.0406	44.8 µM
N[C@H](C(=O)O)[C@H](Cl)CC(=O)O	–	> 100	–	> 100 µM	–	> 100	–	> 100	–	> 100	–	> 100	–	> 100	–	> 100 µM	–	> 100	–	> 100 µM
COc1cc[nH]c1/C=C1\C(=O)Nc2ccc(F)c(I)c21	> 25	> 25	> 25	> 25 µM	> 25	> 25	> 25	> 25	> 25	> 25	> 25	> 25	> 25	> 25	> 25	> 25 µM	> 25	> 25	> 25	> 25 µM
C[C@@H]1COCCN1c1cc(C2(S(C)(=N)=O)CC2)nc(-c2ccnc3[nH]ccc23)n1 (stereo partly specified)	3.35	35.2	2.49	31.6 µM	6.95	> 100	2.62	34.3	1.07	20.6	1.86	23.7	3.3	16.7	0.86	3.5 µM	4.77	89.6	5.46	63.9 µM
CC(=O)Oc1ccc(O)c(O)c1C/C=C(\C)CC/C=C(\C)CC/C=C(\C)CCC=C(C)C	–	1.55	–	0.886 µM	–	1.18	–	1.47	–	1.31	–	1.72	–	1.89	–	1.62 µM	–	0.868	–	1.28 µM

Structure (SMILES)	GI50 [1] [µM]	TGI [1] [µM]	GI50 [2] [µM]	TGI [2]	GI50 [3] [µM]	TGI [3] [µM]	GI50 [4] [µM]	TGI [4] [µM]	GI50 [5] [µM]	TGI [5] [µM]	GI50 [6] [µM]	TGI [6] [µM]	GI50 [7] [µM]	TGI [7] [µM]	GI50 [8] [µM]	TGI [8]	GI50 [9] [µM]	TGI [9] [µM]	GI50 [10] [µM]	TGI [10]
Cc1cccc(C(C)C)c1NC(=O)C(=O)CC(=O)c1c(C)n([O-])c2ccccc2[n+]1=O	–	> 100	–	> 100 µM	–	> 100	–	51.3	–	60	–	95	–	> 100	–	83.8 µM	–	96.7	–	95.9 µM
O=C(CN1CCN(c2ccccc2)CC1)N1CCc2c([nH]c3ccccc23)C1c1cccnc1 (stereo unspecified)	–	> 100	–	> 66.3 µM	–	> 100	–	> 85.3	–	> 100	–	> 66.8	–	> 100	–	57.8 µM	–	> 100	–	42.2 µM
COc1ccc2oc3cccc(NCCN(C)C)c3c(=O)c2c1	–	28.2	–	27.9 µM	–	20.3	–	32.7	–	21.2	–	27.7	–	24.9	–	28.1 µM	–	23.3	–	25.3 µM
CN=S(=O)(c1ccccc1)c1ccccc1	–	> 100	–	> 100 µM	–	> 100	–	> 100	–	> 100	–	> 100	–	> 100	–	> 100 µM	–	> 100	–	> 100 µM
S=c1[nH]c2ccc(Br)cc2c(=S)n1-c1ccccc1	–	> 100	–	78.5 µM	–	47.7	–	65.6	–	45.2	–	> 100	–	> 100	–	44.4 µM	–	98.7	–	48.4 µM
C=C1CC[C@@H]2[C@](C)(COC(C)=O)[C@H](OC(C)=O)CC[C@@]2(C)[C@@H]1CC(Nc1ccc(S(=O)(=O)Nc2nccc(C)n2)cc1)C1=CCOC1=O (stereo partly specified)	8.19	21.9	6.24	18.9 µM	2.02	4.24	3.78	16	4.88	18.3	4.37	15.8	3.86	12.8	2.07	4.73 µM	2.64	6.17	3.17	10.7 µM
Cc1nc2sc(C(=O)Nc3ccccc3)c(N)c2cc1C(=O)/C=C/c1ccccc1	2.08	4.91	2.07	7.07 µM	1.77	3.95	2.2	5.44	1.96	4.15	3.1	18.5	2.31	7.13	1.88	3.56 µM	2.02	4.45	1.71	3.16 µM
CCOC(=O)C(=O)Nc1c(C)cccc1C	–	> 100	–	> 100 µM	–	> 100	–	> 100	–	> 100	–	> 100	–	> 100	–	> 100 µM	–	> 100	–	> 100 µM
N#CC(C(=O)C(=O)NCCCNC(=O)C(=O)C(C#N)c1ccccc1)c1ccccc1 (stereo unspecified)	–	> 100	–	> 100 µM	–	> 100	–	> 100	–	> 100	–	> 100	–	> 100	–	> 100 µM	–	> 100	–	> 100 µM
CCc1cc(O)c(Cl)c(C)c1Cl	–	> 100	–	33.7 µM	–	39.1	–	36.9	–	33.7	–	28.5	–	52.2	–	34.8 µM	–	29.5	–	38.1 µM
Cc1ccc(NC(=O)/C(=N\Nc2ccc([N+](=O)[O-])cc2[N+](=O)[O-])C2C(=O)NC(=O)NC2=O)cc1	–	> 100	–	> 100 µM	–	> 100	–	> 100	–	> 100	–	> 100	–	> 100	–	90.9 µM	–	> 100	–	> 100 µM
CC1S(=O)(=O)OCCOS1(=O)=O	–	> 100	–	> 100 µM	–	> 100	–	> 100	–	> 100	–	> 100	–	> 100	–	> 100 µM	–	> 100	–	> 100 µM
Clc1nc(Cl)c2c(ncn2C/C=C\Cn2cnc3c(Cl)nc(Cl)nc32)n1	2.38	5.99	1.89	3.58 µM	1.4	2.73	1.72	3.93	2.34	5.65	1.73	3.28	1.96	3.74	2.38	5.46 µM	1.8	6.14	1.85	3.91 µM
OCCCCCCOc1ccc(-c2cc(-c3ccccn3)nc(-c3ccccn3)c2)cc1	–	6.42	–	14.8 µM	–	11.8	–	9.05	–	1.17	–	4.81	–	4.14	–	1.02 µM	–	3.02	–	1.6 µM
CC(=O)O[C@@H]1CC2C(C)(C)CCCC2(C)C2=C1C(=O)C(C(C)C)=CC2=O (stereo partly specified)	1.43	5.83	0.652	2.1 µM	2.03	5.54	1.87	7.86	0.423	1.9	0.838	6.58	2.26	5.32	1.17	4.05 µM	1.28	4.89	2.35	> 100 µM
Nc1cc(N)c(N)cc1N	2.06	4.51	12	27.2 µM	2.42	4.86	1.67	4.1	10.8	26.2	1.79	3.35	2.18	4.99	2.17	5.88 µM	1.6	3.08	1.82	3.75 µM
